Laboratory results as given in patent publication US8461305B2, “L-fucose α1→6 specific lectin” (J-Oil Mills, Inc., priority 2008, dated 2013).

Assay: frontal affinity chromatography (FAC), association constant to PA sugar chains without L-fucose
Format: binding
Method: The following section will describe a method of calculating an association constant by frontal affinity chromatography (FAC). This method is based on the following principle. […] Then, the elution front end (front) is observed immediately. When there is an affinity with lectin, the elution of the sugar chain is delayed.
The preparation of a lectin column used in the apparatus is performed in the method as described below. 1. Purified lectin is dissolved in 0.1 to 0.2M of NaHCO3 buffer solution (pH 8.3 to 8.5). 2. The lectin is immobilized, via a lectin primary amino group, a carrier such as NHS activated sepharose. 3. Then, the lectin is blocked by Tris buffer solution including primary amine or ethanolamine for example. 4. Lectin-sepharose is suspended in 10 mM Tris buffer, including 0.8% of NaCl (pH 7.4, TBS). Then, lectin immobilized resin is filled in a miniature column (φ2 mm×10 mm, 31.4 μl). 5. The miniature column in which the lectin immobilized resin is filled is protected by a holder and the lectin column is connected to an FAC automatic analysis apparatus (FAC-1, SHIMADZU CORPORATION).
Then, the elution of the PA sugar chain from the column is detected by a fluorescence detector (excitation wavelength/fluorescence wavelength: 310 nm/380 nm).
Based on the detection data, by using the elution front end (Vo) of the sugar chain (PA rhamnose) not interacting with lectin as a reference, the delay (V−Vo) of the elution front end (V) of a sugar chain interacting with lectin is calculated as an interaction strength. Then, based on the following FAC criteria expressions, the association constant (Ka) between the sugar chain and lectin is calculated based on V−Vo and Bt. If the interaction strength (V−Vo value) and the association constant are higher, a higher affinity is caused between lectin and an L-fucose α1→6 sugar chain.
[In the formula, A means substance used for the elution, Ao means the initial concentration of the substance A, B means a immobilized ligand, V means the elution volume, Vo means the elution front end volume of the substance not interacting with the immobilized ligand B at all, Bt means an effective ligand amount, Kd means a dissociation constant (an inverse of the association constant)].
Pyridylaminated (PA) sugar chains shown in FIG. 1 and FIG. 2 were used to frontal affinity chromatography (FAC) analysis. PA sugars were purchased from TAKARA BIO INC., SEIKAGAKU BIOBUSINESS CORPORATION, and Masuda Chemical Industries co., LTD. PA sugar were also obtained by pyridylaminating, by GlycoTAG®(TAKARA BIO INC.), an unlabeled sugar chain or a sugar chain obtained by subjecting a sugar chain to enzyme digestion for example.
Lectin was dissolved in 0.2 M NaHCO3 buffer solution (pH 8.3) including 0.5 M NaCl and coupled to the NHS-activated sepharose (GE Healthcare Bioscience) by following the manufacturer's instructions. Then, lectin immobilized sepharose was suspended in 10 mM Tris buffer (pH 7.4, TBS) including […] and the resultant matter was filled in a miniature column (φ2 mm×10 mm, 31.4 μl).
Frontal affinity chromatography was performed using FAC automatic analysis apparatus (FAC-1, SHIMADZU CORPORATION). In particular, the above-prepared lectin column was inserted to a stainless steel holder and the holder was connected to FAC-1 apparatus. The flow rate and the column temperature were maintained at 0.125 ml/min and 25 degrees C., respectively. After the miniature column was equilibrated by the TBS, an excessive volume (0.5 ml to 4 ml) of a PA sugar chain (3.75 nM or 7.5 nM) was continuously inputted to the column using an automatic sampling apparatus.
The fluorescent strength of the eluate of the PA sugar (excitation wavelength of 310 nm and fluorescence wavelength of 380 nm) was monitored to measure the interaction strength [a difference of the front end eluate to the standard oligosaccharide (PA rhamnose): V−V0]. […]

Lepista sordida lectin [LSL, novel lectin purified from the mushroom Lepista sordida]
<1000 M⁻¹: association constant Ka (Sugar chain No. 001, sugar chain not having L-fucose) | association constant Ka (Sugar chain No. 002, sugar chain not having L-fucose) | association constant Ka (Sugar chain No. 003, sugar chain not having L-fucose) | association constant Ka (Sugar chain No. 004, sugar chain not having L-fucose) | association constant Ka (Sugar chain No. 005, sugar chain not having L-fucose) | association constant Ka (Sugar chain No. 006, sugar chain not having L-fucose) | association constant Ka (Sugar chain No. 007, sugar chain not having L-fucose) | association constant Ka (Sugar chain No. 008, sugar chain not having L-fucose) | association constant Ka (Sugar chain No. 009, sugar chain not having L-fucose) | association constant Ka (Sugar chain No. 010, sugar chain not having L-fucose) | association constant Ka (Sugar chain No. 011, sugar chain not having L-fucose) | association constant Ka (Sugar chain No. 012, sugar chain not having L-fucose) | association constant Ka (Sugar chain No. 013, sugar chain not having L-fucose) | association constant Ka (Sugar chain No. 014, sugar chain not having L-fucose) | association constant Ka (Sugar chain No. 101, sugar chain not having L-fucose) | association constant Ka (Sugar chain No. 103, sugar chain not having L-fucose) | association constant Ka (Sugar chain No. 104, sugar chain not having L-fucose) | association constant Ka (Sugar chain No. 105, sugar chain not having L-fucose) | association constant Ka (Sugar chain No. 107, sugar chain not having L-fucose) | association constant Ka (Sugar chain No. 108, sugar chain not having L-fucose) | association constant Ka (Sugar chain No. 301, sugar chain not having L-fucose) | association constant Ka (Sugar chain No. 304, sugar chain not having L-fucose) | association constant Ka (Sugar chain No. 305, sugar chain not having L-fucose) | association constant Ka (Sugar chain No. 307, sugar chain not having L-fucose) | association constant Ka (Sugar chain No. 308, sugar chain not having L-fucose) | association constant Ka (Sugar chain No. 313, sugar chain not having L-fucose) | association constant Ka (Sugar chain No. 314, sugar chain not having L-fucose) | association constant Ka (Sugar chain No. 323, sugar chain not having L-fucose) | association constant Ka (Sugar chain No. 501, sugar chain not having L-fucose) | association constant Ka (Sugar chain No. 502, sugar chain not having L-fucose) | association constant Ka (Sugar chain No. 503, sugar chain not having L-fucose) | association constant Ka (Sugar chain No. 504, sugar chain not having L-fucose) | association constant Ka (Sugar chain No. 701, sugar chain not having L-fucose) | association constant Ka (Sugar chain No. 702, sugar chain not having L-fucose) | association constant Ka (Sugar chain No. 703, sugar chain not having L-fucose) | association constant Ka (Sugar chain No. 704, sugar chain not having L-fucose) | association constant Ka (Sugar chain No. 705, sugar chain not having L-fucose) | association constant Ka (Sugar chain No. 706, sugar chain not having L-fucose) | association constant Ka (Sugar chain No. 707, sugar chain not having L-fucose) | association constant Ka (Sugar chain No. 708, sugar chain not having L-fucose) | association constant Ka (Sugar chain No. 709, sugar chain not having L-fucose) | association constant Ka (Sugar chain No. 710, sugar chain not having L-fucose) | association constant Ka (Sugar chain No. 711, sugar chain not having L-fucose) | association constant Ka (Sugar chain No. 712, sugar chain not having L-fucose) | association constant Ka (Sugar chain No. 713, sugar chain not having L-fucose) | association constant Ka (Sugar chain No. 715, sugar chain not having L-fucose) | association constant Ka (Sugar chain No. 716, sugar chain not having L-fucose) | association constant Ka (Sugar chain No. 717, sugar chain not having L-fucose) | association constant Ka (Sugar chain No. 724, sugar chain not having L-fucose) | association constant Ka (Sugar chain No. 725, sugar chain not having L-fucose) | association constant Ka (Sugar chain No. 728, sugar chain not having L-fucose) | association constant Ka (Sugar chain No. 732, sugar chain not having L-fucose) | association constant Ka (Sugar chain No. 733, sugar chain not having L-fucose) | association constant Ka (Sugar chain No. 734, sugar chain not having L-fucose) | association constant Ka (Sugar chain No. 735, sugar chain not having L-fucose) | association constant Ka (Sugar chain No. 736, sugar chain not having L-fucose) | association constant Ka (Sugar chain No. 737, sugar chain not having L-fucose) | association constant Ka (Sugar chain No. 738, sugar chain not having L-fucose) | association constant Ka (Sugar chain No. 901, sugar chain not having L-fucose) | association constant Ka (Sugar chain No. 902, sugar chain not having L-fucose) | association constant Ka (Sugar chain No. 903, sugar chain not having L-fucose) | association constant Ka (Sugar chain No. 905, sugar chain not having L-fucose) | association constant Ka (Sugar chain No. 907, sugar chain not having L-fucose)
not detected at all: binding to sugar chain not having L-fucose (FAC)
